From patent publication US20240391900A1, “RIP1 KINASE INHIBITOR AND USE THEREOF” (SIRONAX (BEIJING) CO., LTD., priority 2021, published 2024)

What was measured:
[1] = tested on: HT-29 human colon cancer cells; assay: In vitro biological activity assay: inhibition of TNFα/SmacM/Z_VAD FMK-induced programmed necrosis, CellTiter-Glo viability; type: cell-based; settings: HT-29 cells, necrosis induced with TNF-α 100 ng/mL, SmacM 100 nM, Z_VAD-FMK 10 μM, overnight, cell viability by chemiluminescence
Experimental: In order to verify the inhibitory effect of the compounds of the present disclosure on programmed necrosis at the cellular level, a type of cells closely related to the RIP1 pathway, namely HT-29 human colon cancer cells, were selected. The used activation mode is a combination of tumor necrosis factor (TNFα), cysteine aspartate activator mimic (SmacM) and pan-caspase inhibitor Z_VAD FMK, and the cell viability was calculated by detecting chemiluminescence values, thus obtaining the biological activity of the compound inhibiting the programmed necrosis of cells.
Cell line: HT-29 (ATCC® HTB-38™)
• 2.1. The Growth Status of HT-29 Cells was Regularly Checked to Ensure their Normal Growth. • 2.2. McCOY's 5A culture medium containing 10% FBS was preheated in a 37° C. water bath for 30 minutes. When the culture medium was ready for use, the cell passage and inoculation was performed in a Class II safety cabinet with aseptic technique. • 2.3. In a T75 culture flask, when the growth density of cells reached the abundance of approximately 80%, the culture medium was aspirated and cells were washed twice with pre-warmed PBS. • 2.4. 2-3 mL of trypsin (Gibco, catalog number 25200-056) was added and the T75 culture flask was transferred to a 37° C. incubator. • 2.5. After 3-5 minutes, the side of the culture flask was tapped and examined under a microscope for detachment of the cells to the flask. If necessary, the cells were placed back into the incubator to wait for another 5-10 minutes until 85% of the cells were detached from each other. • 2.6. 6-9 mL of complete cell culture medium was quickly added to terminate the trypsin reaction, and then the cells were transferred to a sterile 15 mL centrifuge tube. The cells were pelleted by centrifugation at 300 g for 5-7 minutes in a centrifuge, and then the supernatant was decanted. • 2.7. The cells were resuspended in 10 mL of fresh cell culture medium and the cells were counted by using a hemocytometer. • 2.8. 3,000 cells contained in 100 μL were inoculated into each well of a sterile 96-well cell culture plate (Corning 3903) and cultured overnight at 37° C. under 5% CO2.
• 3.1. All batches of compounds were dissolved in dimethyl sulfoxide (DMSO) to prepare a 20 mM stock. • 3.2. 3 μL of 20 mM stock of each compound was added to 27 μL of DMSO and mixed thoroughly, and then diluted at a dilution ratio of […] (20 μL compound+40 μL DMSO) until the 10-12 points ended. After the compounds were diluted, they were set aside for use. • 3.3. The cell culture plate was taken out from the incubator, washed once with PBS, and replaced with a fresh culture medium free of serum. A mixture of TNF-α (100 ng/mL), SMAC mimic (SmacM, 100 nM) and Z_VAD-FMK (10 μM) was added to induce the programmed necrosis in HT-29 cells. • 3.4. The compound dilution plate was prepared, 0.5 μL of the diluted compound was added to the corresponding 96-well plate, and mixed gently. Two duplicate wells were prepared for each compound. • 3.5. The treated 96-well plate to which the compounds had been added was placed back into the 37° C. incubator containing 5% CO2 and incubated overnight.
The luminescence cell viability detection kit was used to calculate the activity of the compound by measuring the ATP content in viable cells. • 4.1. The CellTiter-Glo® buffer and dry powdered substrate were equilibrated to room temperature before use. • 4.2. The CellTiter-Glo® substrate was resuspended with Cell Titer-Glo® buffer, then homogeneously mixed by gently vortexing. • 4.3. The cell culture plate was taken out and equilibrated at room temperature for 10 minutes (usually not suitable if more than 30 minutes). • 4.4. 20 μL of enzyme/substrate mixture was added into the 96-well assay plate with a multi-channel pipettor. • 4.5. The 96-well assay plate was placed on a shaker and the content was mixed for 2-3 minutes to promote the cell lysis. • 4.6. […]

[2] = Rapid brain distribution assay (LC-MS/MS, brain tissue/plasma ratio); type: in vivo; settings: mouse, ip, CD1 mice, intraperitoneal, grouped compounds, brain tissue and plasma taken one hour after administration, read-out: B/P
Experimental: The contents in plasma and tissue samples were measured by LC-MS/MS to obtain the ratio of the concentration in the brain tissue sample to that in the plasma sample, and compounds with blood-brain penetration could be quickly screened.
• 3.1. A group of compounds (usually 3-4 compounds, the molecular weight difference between each other was greater than 5), weighing 1-2 mg of each compound, were added into the same 4 mL weighing bottle. • 3.2. A mixed solvent of 10% DMSO+20% polyethylene glycol-15-hydroxystearate+70% H2O was used to prepare each group to a volume of 1.5 mL-2 mL. • 3.3. The mixture was ultrasonically vortexed until a homogeneous solution was obtained for intraperitioneal administration.
• 4.1. Three CD1 mice were prepared for each group and weighed. • 4.2. The administration volume was 10 mL/kg, and the mice were administered intraperitoneally. • 4.3. Timing was started after administration, and plasma samples and brain tissue samples were taken one hour later. • 4.4. The brain tissue sample was weighed, and then 4 fold volume of physiological saline was added. The resulting mixture was homogenized, and frozen at −20° C. until analysis.
• 5.1. The exact molecular weight of a compound was found from the compound information table. • 5.2. The corresponding parent ions and fragment ions were found, and the mass spectrometry condition and the liquid phase (chromatography) method were optimized to find the appropriate condition and method.
• 6.1. Plasma sample (5-fold dilution): 10 μL of the plasma sample was taken, and 40 μL of the blank plasma sample and 50 μL of the corresponding blank tissue sample were added. • 6.2 Tissue sample processing: 50 μL of the tissue sample (brain, kidney, liver and the like) was taken, and 50 μL of the blank plasma sample was added. • 6.3. The above tissue sample and the diluted plasma sample were taken, and 500 μL of the internal standard solution was added to precipitate the protein. The resulting mixture was vortexed for 2 minutes, stored by freezing at −20° C. for 1 hour and centrifuged at 3800 rpm for 15 minutes at 4° C. The supernatant was taken, 5-fold diluted with 50% MeOH, and then vortexed for 2 minutes, ready for measurement.
The sample was detected by using an appropriate LC-MS/MS method.
Distribution ratio of tissue/plasma=(peak area of compound in tissue/peak area of internal standard)/(peak area of compound in plasma/peak area of internal standard)

Kp at 1 h [2]	Compound	EC50 [1]
0.735	C(#Cc1cnc2cccnn12)c1cccc(-n2cc3c(n2)C(c2ccccc2)CC3)n1 (stereo not drawn) [Compound 1, 3-((6-(6-phenyl-5,6-dihydrocyclopenta[c]pyrazol-2 (4H)-yl)pyridin-2-yl)ethynyl)imidazo[1,2-b]pyridazine]	≤ 100 nM
0.62	Nc1ncc(C#Cc2cncc(-n3nc4c(n3)C(C3CCCCC3)CC4)c2)cn1 (stereo not drawn) [Compound 2, 5-((5-(4-cyclohexyl-5,6-dihydrocyclopenta[d][1,2,3]triazol-2 (4H)-yl)pyridin-3-yl)ethynyl)pyrimidin-2-amine]	≤ 100 nM
3.96	Nc1ncc(C#CC2CCC(n3cc4c(n3)C(c3ccccc3)CC4)C2)cn1 (stereo not drawn) [Compound 3, 5-((3-(6-phenyl-5,6-dihydrocyclopenta[c]pyrazol-2 (4H)-yl)cyclopentyl)ethynyl)pyrimidin-2-amine]	≤ 100 nM
1.44	Cn1c(-n2cc3c(n2)C(c2ccccc2)CC3)cc(C#Cc2cnc(N)nc2)cc1=O (stereo not drawn) [Compound 4, 4-((2-aminopyrimidin-5-yl)ethynyl)-1-methyl-6-(6-phenyl-5,6-dihydrocyclopenta[c]pyrazol-2 (4H)-yl)pyridine-2 (1H)-one]	≤ 100 nM
0.75	C(#Cc1cnc2cccnn12)c1cccc(-n2cc3c(n2)C(c2ccccc2)CC3)c1 (stereo not drawn) [Compound 5]	≤ 100 nM
1.24	C(#Cc1cnc2cccnn12)c1cncc(-n2cc3c(n2)C(c2ccccc2)CC3)c1 (stereo not drawn) [Compound 6, 3-((5-(6-phenyl-5,6-dihydrocyclopenta[c]pyrazol-2 (4H)-yl)pyridin-3-yl)ethynyl)imidazo[1,2-b]pyridazine]	≤ 100 nM
0.12	C(#Cc1cnc2cccnn12)c1ccnc(-n2cc3c(n2)C(c2ccccc2)CC3)n1 (stereo not drawn) [Compound 7, 3-((2-(6-phenyl-5,6-dihydrocyclopenta[c]pyrazol-2 (4H)-yl)pyrimidine-4-yl)ethynyl)imidazo[1,2-b]pyridazine]	100 to 1000 nM
2.85	Nc1ncc(C#Cc2cc(-n3cc4c(n3)C(c3ccccc3)CC4)ncn2)cn1 (stereo not drawn) [Compound 9, 5-((6-(6-phenyl-5,6-dihydrocyclopenta[c]pyrazol-2 (4H)-yl)pyrimidine-4-yl)ethynyl)pyrimidin-2-amine]	100 to 1000 nM
1.34	NC(=O)c1ncc(C#Cc2cncc(-n3cc4c(n3)C(c3ccccc3)CC4)c2)cn1 (stereo not drawn) [Compound 10, 5-((5-(6-phenyl-5,6-dihydrocyclopenta[c]pyrazol-2 (4H)-yl)pyridin-3-yl)ethynyl)pyrimidine-2-carboxamide]	> 1000 nM
1.23	Oc1ccc(C#Cc2cncc(-n3cc4c(n3)C(c3ccccc3)CC4)c2)nn1 (stereo not drawn) [Compound 11, 6-((5-(6-phenyl-5,6-dihydrocyclopenta[c]pyrazol-2 (4H)-yl)pyridin-3-yl)ethynyl)pyridazine-3-ol]	≤ 100 nM
2.92	Nc1ncc(C#Cc2cncc(-n3cc4c(n3)[C@H](c3ccccc3)CC4)c2)cn1 [Compound 14]	≤ 100 nM
0.406	C(#Cc1cnc2ccccn12)c1cccc(-n2cc3c(n2)C(c2ccccc2)CC3)c1 (stereo not drawn) [Compound 15, 3-((3-(6-phenyl-5,6-dihydrocyclopenta[c]pyrazol-2 (4H)-yl)phenyl)ethynyl)imidazo[1,2-a]pyridine]	≤ 100 nM
2.24	Nc1ccc(C#Cc2cncc(-n3cc4c(n3)C(c3ccccc3)CC4)c2)cn1 (stereo not drawn) [Compound 16, 5-((5-(6-phenyl-5,6-dihydrocyclopenta[c]pyrazol-2 (4H)-yl)pyridin-3-yl)ethynyl)pyridine-2-amine]	≤ 100 nM
1.33	Cc1ncc(C#Cc2cccc(-n3cc4c(n3)C(c3ccccc3)CC4)c2)n1C (stereo not drawn) [Compound 24, 2-(3-((1,2-dimethyl-iH-imidazole-5-yl)ethynyl)phenyl)-6-phenyl-2,4,5,6-tetrahydrocyclopenta[c]pyrazole]	≤ 100 nM
1.91	Nc1ncc(C#Cc2ccnc(-n3cc4c(n3)C(c3ccccc3)CC4)c2)cn1 (stereo not drawn) [Compound 28]	≤ 100 nM
0.429	C(#Cc1cncc(-n2cc3c(n2)C(c2ccccc2)CC3)c1)c1ccccc1 (stereo not drawn) [Compound 30, 6-phenyl-2-(5-(phenylethynyl)pyridin-3-yl)-2,4,5,6-tetrahydrocyclopenta[c]pyrazole]	> 1000 nM
2.38	Nc1ncc(C#Cc2cncc(-n3cc4c(n3)[C@H](c3ccccc3)CC4)c2)s1 [Compound 31]	≤ 100 nM
1.27	C(#Cc1cccc(-n2cc3c(n2)C(c2ccccc2)CC3)c1)c1cccnc1 (stereo not drawn) [Compound 32, 6-phenyl-2-(3-(pyridin-3-ethynyl)phenyl)-2,4,5,6-tetrahydrocyclopenta[c]pyrazole]	≤ 100 nM
0.563	COc1ccc(C#Cc2cccc(-n3cc4c(n3)C(c3ccccc3)CC4)c2)cn1 (stereo not drawn) [Compound 33, 2-(3-((6-methoxypyridin-3-yl)ethynyl)phenyl)-6-phenyl-2,4,5,6-tetrahydrocyclopenta[c]pyrazole]	≤ 100 nM
3.62	Nc1ncc(C#Cc2cccc(-n3cc4c(n3)C(c3ccccc3)CC4)c2)cn1 (stereo not drawn) [Compound 36, 5-((3-(6-phenyl-5,6-dihydrocyclopenta[c]pyrazol-2 (4H)-yl)phenyl)ethynyl)pyrimidin-2-amine]	≤ 100 nM
1.06	C(#Cc1cnc2cccnn12)c1cc(-n2cc3c(n2)C(c2ccccc2)CC3)ccn1 (stereo not drawn) [Compound 37]	≤ 100 nM
2.46	Nc1ncc(C#Cc2cncc(-n3cc4c(n3)C(c3ccccc3)CC4)c2)cn1 (stereo not drawn) [Compound 38]	≤ 100 nM
2.07	Nc1ncc(C#Cc2cncc(-n3nc4c(c3Cl)CCC4c3ccccc3)c2)cn1 (stereo not drawn) [Compound 39]	≤ 100 nM
1.61	Cc1c2c(nn1-c1cncc(C#Cc3cnc(N)nc3)c1)C(c1ccccc1)CC2 (stereo not drawn) [Compound 40]	≤ 100 nM
